According to patent publication US20150330990A1, “METHOD OF SCREENING CANDIDATE BIOCHEMICAL ENTITIES TARGETING A TARGET BIOCHEMICAL ENTITY” (BIODESY, INC., priority 2013, published 2015):
Several values for one entry are separate records, joined by “and”; a condition that tells them apart may be missing. Equal values may be shown once. Values belong to the molecule of their own block, whether it stands above or below them.

Columns and labels:
alpha-synuclein [1] = biological target: T1, alpha-synuclein (Homo sapiens, UniProt P37840, A90C); settings: 1 mM Dopamine, 50 mM Hepes pH 7.4, 100 mM NaCl
Method: An alanine to cysteine mutation (A90C) was introduced into alpha-synuclein to produce a site-specific peptide for dye conjugation, as native alpha-synuclein lacks cysteine residues. A90C alpha-synuclein was then labeled with PyMPO-Maleimide using standard techniques and the location of the modified peptide was verified by mass spectroscopy to be cysteine 90.
For SHG experiments performed with alpha-synuclein, a stock solution of PyMPO-Maleimide-labeled A90C alpha-synuclein was diluted to a final concentration of 5 μM in 50 mM Hepes, pH 7.4, 100 mM NaCl. The 5 μM protein solution was then immobilized onto an aldehyde derivatized glass slide by incubating for one hour at room temperature. Control (buffer) and compound injections were performed in 50 mM Hepes, pH 7.4, 100 mM NaCl.
The experiments were performed with an instrument comprising a mode-locked Ti:sapphire oscillator which provides the fundamental beam necessary to generate the second-harmonic signal (high peak power intensity). We used a Mira 900 Ti:Sapphire ultrafast oscillator (Coherent Inc.) pumped by a Millenia V DPSS laser (Spectra-Physics Corp.). The Ti:sapphire oscillator produced ˜0.7 W of fundamental power at 780 nm with pulse duration of ˜150 fs at 80 MHz. […]

Raf kinase = experiment: SHG signature on Raf kinase surface array (Example 4); type: binding; settings: positive direction
Method: A library comprising 200 distinct compounds and Sorafenib, each with a molecular weight between 400 and 500 g/mol, three aromatic groups, and 2-5 nitrogen atoms, is evaluated for the structure-activity relationship using a surface array comprising more than 200 copies of a Raf kinase. The conformation state of the Raf kinase is measured by […] (SHG) methods described in the present application to establish a baseline in the absence of any compound. Each compound in the library is then contacted with a single copy of the Raf kinase on the array. The conformational state of each copy of the single kinase target is measured by SHG methods. The SHG signature for each compound is determined based on the change in conformational state upon contacting the Raf kinase. Sorafenib has a SHG signature with a 30% shift (i.e. magnitude) in the positive direction. The compounds are grouped, based on their SHG signature and common structural parameters, to generate a structure-activity relationship (SAR) catalog. For example, the 8 compounds that have a signature within 10% in magnitude to that of Sorafenib are cataloged as “molecular weight between 400 and 500 g/mol, three aromatic groups, 2-5 nitrogen atoms, and a signature with +27% to +33% magnitude”. […]

alpha-synuclein [2] = biological target: T1, alpha-synuclein; experiment: SHG competition assays (spermine-spermidine, spermine-COMPOUND A, analog-spermine, library screen); type: binding; design: made in house; settings: 3 mM Spermidine added after 25 minutes incubation with 1 mM Spermine
Method: The Maybridge Ro3 fragment library contains over 1,000 pharmacophoric compounds of 95% purity solubilized at 50 mM in DMSO. For fragment screening experiments, a single compound from the library was diluted in PBS and placed in each well at a final concentration of 1 mM ([…]).
After 25 minutes, 3 mM spermidine was added to each well and the resulting change in SHG intensity was measured.
To calculate the percent change, the SHG intensity as measured just prior to injection (T0) was subtracted from the SHG intensity at Tmax and then divided by T0 according to the following equation: SHG %=(ISHG@Tmax−ISHG@T0)/ISHG@T0.
A control buffer injection was used to determine the threshold for SHG intensity change and was calculated in a similar manner to above. The net SHG intensity change for each compound was then reported by subtracting the buffer threshold value from the SHG intensity value produced by compound addition. The resulting value was reported as the percent change in SHG intensity due to compound addition.
Each well was loaded with 5 μM alpha-synuclein and pre-incubated with one fragment compound from the Maybridge Ro3 library for 30 minutes at 1 mM in assay buffer. […] As shown in FIG. 2C (right trace), addition of 1 mM COMPOUND A to alpha-synuclein changes the SHG baseline signal immediately.

alpha-synuclein [3] = biological target: T1, alpha-synuclein; experiment: SHG conformational change assay, compound added alone; type: binding; design: made in house; settings: for EC50: 5 μM alpha-synuclein, GraphPad non-linear fit, read-out: EC50 (SHG dose-response curve; binding affinity)
Description: A single-site cysteine mutant […]) of the alpha-synuclein was constructed and labeled with PyMPO-maleimide (Invitrogen), an SH-active probe that we have used in previous studies ([…], Journal of Chemical Physics 125(7), 2006; […], Physical Chemistry Chemical Physics 9(42):5704-5711, 2007). Mutant […]) protein was previously determined to function like wild-type (Bertoncini C W, et al., Proceedings of the National Academy of Sciences of the United States of America 102(5):1430-1435, 2005). The label was coupled to the protein according to the manufacturer's instructions and purified by gel filtration. Artemis SHG Screening Instrumentation: The Artemis instrument is comprised of a mode-locked Ti:sapphire oscillator that provides the fundamental beam necessary to generate second-harmonic light (high peak power intensity). […] Each of the 16 wells is read in sequence by translating the stage via the control software. Artemis was outfitted with a single-channel liquid injector (Cavro) which delivered a liquid bolus. The liquid bolus volume and delivery speed could be varied. In the experiments described here, we used a volume of 10 μl delivered in 1 second. The measured parameters include the read time before and after ligand injection, integration time, stage temperature (kept at room temperature for all experiments here), and the stage position, relative to the line of the fundamental beam. A custom silicone template with adhesive backing (Arrowleaf Research) was applied to commercially available Xenobind glass microscope slides (Xenopore) using a custom machined assembly jig to define 16 wells of diameter 3 mm (volume 15 μl) on each slide. The template defining the wells is registered to a standard 96-well plate. […] After allowing the protein to absorb, the slide was placed on the […] platform and each well was scanned via SHG to determine the amount of protein in each well. Unbound protein was then removed by washing five times with 20 μL PBS. A post-wash well scan was then performed to determine how much protein was bound to the slide surface. To determine the dose-response curves of Spermine (Sigma), Spermidine (Sigma), and COMPOUND A, serial dilutions of each compound were used to prepare stock solutions. Each compound was added to a well to produce the indicated final concentration. […] For COMPOUND A the concentration range was 5 μ[…], and 1 mM. The concentrations were then converted to the log scale and the data plotted in GraphPad Prism V5 using the non-linear regression fit for log(agonist) vs response with variable slope. […] The EC50 values were calculated by the software. Control experiments were performed on each compound to empirically determine the time frame required for each compound to produce a maximal response (Tmax). […] The resulting value was reported as the percent change in SHG intensity due to compound addition.

alpha-synuclein [4] = biological target: T2, alpha-synuclein (Homo sapiens, UniProt P37840); settings: cited from earlier work
alpha-synuclein [5] = biological target: T2, alpha-synuclein; experiment: Thioflavin T assay / fibrillization of alpha-synuclein in vitro; type: biochemical

average percent change in the SHG intensity of alpha-synuclein (alpha-synuclein [1]): 3.375±1.13%
Molecule: NCCc1ccc(O)c(O)c1 [Dopamine]

Molecule: CNC(=O)c1cc(Oc2ccc(NC(=O)Nc3ccc(Cl)c(C(F)(F)F)c3)cc2)ccn1 [Sorafenib]
SHG signature shift (magnitude) (Raf kinase): 30%

Molecule: NCCCCNCCCN [Spermidine]
change in SHG intensity (alpha-synuclein [2]): 5.1±0.81% | EC50 (alpha-synuclein [3]): 1110 µM | increase in SHG intensity (alpha-synuclein [3]; 3 mM compound added alone): 19.88±2.37% | logEC50 (alpha-synuclein [3]; SHG dose-response curve): −2.95±0.19

increase of the rate of aggregation of alpha-synuclein in vitro (alpha-synuclein [5]): roughly two-fold | EC50 (alpha-synuclein [3]): 840 µM and 790 µM | Compound Only (% Shift/% Change) (alpha-synuclein [3]; 1 mM): 30.23 ± 3.69% | change in SHG intensity (alpha-synuclein [3]; 1 mM compound added alone to 5 μM alpha-synuclein): 25.58±4.33% and 30.23±3.69% | change in the SHG intensity (alpha-synuclein [3]; 5 mM compound added alone to 5 μM alpha-synuclein): 36.26±4.97% and 37.44±6.40%
Molecule: NCCCNCCCCNCCCN [Spermine]
factor of increase of aggregation rate in vitro (alpha-synuclein [4]): 10^5

change in the SHG intensity of alpha-synuclein (alpha-synuclein [3]; treatment with 10 μM PcTS): −79.6±2.7%
Molecule: Phthalocyanine Tetrasulfonate [PcTs]
